Patent US20250326771A1, “PIPERAZINE DERIVATIVES USEFUL IN HIV THERAPY” (VIIV HEALTHCARE COMPANY, priority 2022, published 2025)

Legend:
[1] = tested on: Jurkat HIV-luciferase clones; assay: Jurkat latency reversal assay; format: cell-based; settings: Homo sapiens, 48 h; Jurkat latency reversal assay potency; read-out: Jurkat pEC50 (converted)
Experimental: Jurkat HIV-luciferase clones were maintained in RPMI medium 1640 (Gibco by Life Technologies) containing 10% (vol/vol) fetal bovine serum (SAFC/Sigma-Aldrich) and 25 units/mL penicillin, 25 units/mL streptomycin (Gibco by Life Technologies), and were split 1:4 every 3 to 4 days to maintain a cell density of ˜0.3 to 1 million cells/mL. The Jurkat clones were maintained with the addition of 500 nM EFV in the medium. Three Jurkat cell clones (C16, 115, and N6), each harboring one or two integrated HIV proviruses expressing the luciferase reporter gene, were added at equal amounts for a total of 5,000 cells per well to 384-well plates containing compound titrations. Dose-response testing was performed on compounds dissolved in dimethyl sulfoxide (DMSO; Fisher Scientific, Merelbeke, Belgium) dispensed in duplicate serial 3-fold, 14-point titrations using a D300e Digital Droplet Dispenser (Hewlett-Packard) to give final assay concentrations of 10 μM to […] in 50 μL of medium at 0.5% DMSO (vol/vol) final concentration. Cells and compound were incubated at 37° C. for 48 hours, unless otherwise indicated, followed by the addition of 20 μL of Steady-Glo® Luciferase (Promega). Luminescence resulting from the induction of the virally expressed luciferase was measured using an EnVision 2102 Multilabel Plate Reader (Perkin Elmer). Dose-response relationships were analyzed with GraphPad PRISM 6 using a four-parameter logistic regression model to calculate the concentration of compound that gives half-maximal response (EC50) and the maximal percent activation compared to the vehicle control.

cIAP1-BIR3 = cIAP1-BIR3 (Homo sapiens (Human), UniProt Q13490); assay: BIR binding assay (FRET competition), cIAP1 BIR3
Chain of cIAP1-BIR3 (Q13490 253-363): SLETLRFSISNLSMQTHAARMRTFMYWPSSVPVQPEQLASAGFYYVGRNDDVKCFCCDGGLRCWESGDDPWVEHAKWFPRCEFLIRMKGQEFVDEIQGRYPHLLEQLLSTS
Experimental: (§1) The BIR domain binding assays are FRET based competition assays that utilize His-tagged versions of each of the BIR2 and BIR3 domains from cIAP1, cIAP2, and XIAP (each domain assayed separately) each at a custom optimal concentration and a probe, 200 nM SMAC/DIABLO peptide […] labelled with AlexaFluor647 (part #crb 1110326h, Discovery Peptides). The assay is conducted in 50 mM HEPES, […], 1 mM CHAPS, 5% Glycerol, 1 mM DTT, in dI water with a final pH of 7.4 and final volume of 20 uL. Final protein domain concentrations are: 50 nM cIAP1-BIR3 (Part #APT-11-370 Reaction Biology), 100 nM XIAP-BIR3 (Part #APT-11-351 Reaction Biology), 200 nM XIAP-BIR2 (Part #APT-11-470 Reaction Biology), 325 nM cIAP2-BIR2 (Part #APT-11-489 Reaction Biology), 50 nM cIAP2-BIR3 (Part #APT-11-372 Reaction Biology), 325 nM cIAP1-BIR2 (Part #APT-11-487 Reaction Biology). Compounds were plated using a HP Tecan D300 printer in a final total volume of 202 nl and DMSO concentration normalized across the 15-point, 3-fold dilution series. Peptide and probe were prepared at 2× relative to the concentrations above in binding buffer, 10 uL added to the prepared compound plates, and incubated for 60 minutes. LANCE Eu-W1024 (part #AD0401 Perkin Elmer #, vendor) was prepared at 2× concentration in binding buffer for final concentration of 2 nM, 10 uL added to each well, and plates incubated for 30 minutes. Plates were read on an ENVISION multifunction plate reader with […] laser excitation to obtain the 615 nm/665 nm emission ratio as indicative of probe:protein proximity. Data was analyzed using GraphPad PRISM and curves fit using log(inhibitor) vs. response—Variable slope (four […] method to obtain IC50 and pIC50 values.

cIAP1-BIR2 = cIAP1-BIR2 (Homo sapiens (Human), UniProt Q13490); assay: BIR binding assay (FRET competition), cIAP1 BIR2
Chain of cIAP1-BIR2 (Q13490 173-257): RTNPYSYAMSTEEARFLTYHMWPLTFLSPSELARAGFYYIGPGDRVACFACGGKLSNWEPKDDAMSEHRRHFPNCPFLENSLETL
Experimental: as §1

cIAP2-BIR3 = cIAP2-BIR3 (Homo sapiens (Human), UniProt Q13489); assay: BIR binding assay (FRET competition), cIAP2 BIR3
Chain of cIAP2-BIR3 (Q13489 238-349): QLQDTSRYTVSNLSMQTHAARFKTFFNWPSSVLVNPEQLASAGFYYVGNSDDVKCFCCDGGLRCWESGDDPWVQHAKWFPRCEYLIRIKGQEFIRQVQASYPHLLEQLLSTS
Experimental: as §1

XIAP-BIR3 = XIAP-BIR3 (Homo sapiens (Human), UniProt P98170); assay: BIR binding assay (FRET competition), XIAP BIR3
Chain of XIAP-BIR3 (P98170 241-356): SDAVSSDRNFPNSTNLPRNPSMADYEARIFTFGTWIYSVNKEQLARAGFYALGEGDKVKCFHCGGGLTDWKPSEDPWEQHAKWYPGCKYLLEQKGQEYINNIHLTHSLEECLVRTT
Experimental: as §1

C[C@@H]1CN(CC(=O)N2CC(C)(C)c3ncc(Cc4ccc(C(F)(F)F)cc4)cc32)[C@@H](CN2CCO[C@H](COc3cccc(OC[C@@H]4CN(C[C@H]5CN[C@H](C)CN5CC(=O)N5CC(C)(C)c6ncc(Cc7ccc(C(F)(F)F)cc7)cc65)CCO4)c3)C2)CN1 [Compound 149] was tested, and the EC50 [1] was 63.1 to 316 nM, the IC50 (cIAP1-BIR3) was 31.6 to 501 nM and the “cIAP1 BIR3 vs BIR2 separation window” value (cIAP1-BIR3; fold separation (FS) for cIAP1) was “+++ (10,000>FS>1,000)”. It also gave an IC50 (cIAP1-BIR2) of 10000 to 51300 nM, an IC50 (cIAP2-BIR3) of 31.6 to 501 nM and an IC50 (XIAP-BIR3) of 31.6 to 501 nM.
C[C@@H]1CN(CC(=O)N2CC(C)(C)c3[nH]c(=O)c(Cc4ccc(F)cc4)cc32)[C@@H](CN2CCO[C@H](COc3ccc(CCc4ccc(OC[C@@H]5CN(C[C@H]6CN[C@H](C)CN6CC(=O)N6CC(C)(C)c7[nH]c(=O)c(Cc8ccc(F)cc8)cc76)CCO5)cc4)cc3)C2)CN1 [Example 58, 1,1′-(2,2′-((3R,3′R,6R,6′R)-(((2S,2'S)-(((ethane-1,2-diylbis(4,1-phenylene))bis(oxy))bis(methylene))bis(morpholine-2,4-diyl))bis(methylene))bis(3-methylpiperazine-6,1-diyl))bis(acetyl))bis(6-(4-fluorobenzyl)-3,3-dimethyl-1,2,3,4-tetrahydro-5H-pyrrolo[3,2-b]pyridin-5-one)] was tested, and the EC50 [1] was 12.6 to 63.1 nM, the IC50 (cIAP1-BIR3) was 15.8 to 31.6 nM and the IC50 (cIAP2-BIR3) was 7.94 to 15.8 nM. It also gave an IC50 (XIAP-BIR3) of 15.8 to 31.6 nM.
With C[C@@H]1CN(CC(=O)N2CC(C)(C)c3[nH]c(=O)c(Cc4ccc(F)cc4)cc32)[C@@H](CN2CCN(S(=O)(=O)c3ccc(Oc4ccc(S(=O)(=O)N5CCN(C[C@H]6CN[C@H](C)CN6CC(=O)N6CC(C)(C)c7[nH]c(=O)c(Cc8ccc(F)cc8)cc76)[C@H](C)C5)cc4)cc3)C[C@H]2C)CN1 [Example 30, 2,2′-((3R,3′R,6R,6′R)-(((2R,2′R)-(oxybis(4,1-phenylenesulfonyl))bis(2-methylpiperazine-4,1-diyl))bis(methylene))bis(3-methylpiperazine-6,1-diyl))bis(1-(6-(4-fluorobenzyl)-3,3-dimethyl-5-oxo-2,3,4,5-tetrahydro-1H-pyrrolo[3,2-b]pyridin-1-yl)ethan-1-one)] the EC50 [1] was 316 to 3310 nM, the IC50 (cIAP1-BIR3) was 31.6 to 501 nM and the IC50 (cIAP2-BIR3) was 15.8 to 31.6 nM. It also gave an IC50 (XIAP-BIR3) of 31.6 to 501 nM.
For C[C@@H]1CN(CC(=O)N2CC(C)(C)c3[nH]c(=O)c(Cc4ccc(F)cc4)cc32)[C@@H](CN2CCO[C@H](COc3ccc(C(C)(C)c4ccc(OC[C@@H]5CN(C[C@H]6CN[C@H](C)CN6CC(=O)N6CC(C)(C)c7[nH]c(=O)c(Cc8ccc(F)cc8)cc76)CCO5)cc4)cc3)C2)CN1 [Example 56, 1,1′-(2,2′-((3R,3′R,6R,6′R)-(((2S,2'S)-(((propane-2,2-diylbis(4,1-phenylene))bis(oxy))bis(methylene))bis(morpholine-2,4-diyl))bis(methylene))bis(3-methylpiperazine-6,1-diyl))bis(acetyl))bis(6-(4-fluorobenzyl)-3,3-dimethyl-1,2,3,4-tetrahydro-5H-pyrrolo[3,2-b]pyridin-5-one)], the EC50 [1] was 12.6 to 63.1 nM, the IC50 (cIAP1-BIR3) was 31.6 to 501 nM and the IC50 (cIAP2-BIR3) was 31.6 to 501 nM. It also gave an IC50 (XIAP-BIR3) of 31.6 to 501 nM.
In the case of C[C@@H]1CN(CC(=O)N2CC(C)(C)c3[nH]c(=O)c(Cc4ccc(F)cc4)cc32)[C@@H](CN2CCO[C@H](COc3ccc(-c4ccc(OC[C@@H]5CN(C[C@H]6CN[C@H](C)CN6CC(=O)N6CC(C)(C)c7[nH]c(=O)c(Cc8ccc(F)cc8)cc76)CCO5)cc4)cc3)C2)CN1 [Example 50, 1,1′-(2,2′-((3R,3′R,6R,6′R)-(((2S,2'S)—(([1,1′-biphenyl]-4,4′-diylbis(oxy))bis(methylene))bis(morpholine-2,4-diyl))bis(methylene))bis(3-methylpiperazine-6,1-diyl))bis(acetyl))bis(6-(4-fluorobenzyl)-3,3-dimethyl-1,2,3,4-tetrahydro-5H-pyrrolo[3,2-b]pyridin-5-one)], the EC50 [1] is reported as 0.49 to 12.6 nM, the IC50 (cIAP1-BIR3) is reported as 1.38 to 7.94 nM and the IC50 (cIAP2-BIR3) is reported as 1.38 to 7.94 nM. For the same compound, the IC50 (XIAP-BIR3) was 1.38 to 7.94 nM.
In the case of C[C@@H]1CN(CC(=O)N2CC(C)(C)c3[nH]c(=O)c(Cc4ccc(F)cc4)cc32)[C@@H](CN2CCO[C@H](COc3ccc(Cc4ccc(OC[C@@H]5CN(C[C@H]6CN[C@H](C)CN6CC(=O)N6CC(C)(C)c7[nH]c(=O)c(Cc8ccc(F)cc8)cc76)CCO5)cc4)cc3)C2)CN1 [Example 53, 1,1′-(2,2′-((3R,3′R,6R,6′R)-(((2S,2'S)-(((methylenebis(4,1-phenylene))bis(oxy))bis(methylene))bis(morpholine-2,4-diyl))bis(methylene))bis(3-methylpiperazine-6,1-diyl))bis(acetyl))bis(6-(4-fluorobenzyl)-3,3-dimethyl-1,2,3,4-tetrahydro-5H-pyrrolo[3,2-b]pyridin-5-one)], the EC50 [1] is reported as 12.6 to 63.1 nM, the IC50 (cIAP1-BIR3) is reported as 31.6 to 501 nM and the IC50 (cIAP2-BIR3) is reported as 31.6 to 501 nM. For the same compound, the IC50 (XIAP-BIR3) was 31.6 to 501 nM.
Compound C[C@@H]1CN(CC(=O)N2CC(C)(C)c3[nH]c(=O)c(Cc4ccc(F)cc4)cc32)[C@@H](CN2CCO[C@H](COc3ccc(C(=O)c4ccc(OC[C@@H]5CN(C[C@H]6CN[C@H](C)CN6CC(=O)N6CC(C)(C)c7[nH]c(=O)c(Cc8ccc(F)cc8)cc76)CCO5)cc4)cc3)C2)CN1 [Example 54, 1,1′-(2,2′-((3R,3′R,6R,6′R)-(((2S,2'S)-(((carbonylbis(4,1-phenylene))bis(oxy))bis(methylene))bis(morpholine-2,4-diyl))bis(methylene))bis(3-methylpiperazine-6,1-diyl))bis(acetyl))bis(6-(4-fluorobenzyl)-3,3-dimethyl-1,2,3,4-tetrahydro-5H-pyrrolo[3,2-b]pyridin-5-one)] has an EC50 [1] of 0.49 to 12.6 nM, an IC50 (cIAP1-BIR3) of 15.8 to 31.6 nM and an IC50 (cIAP2-BIR3) of 15.8 to 31.6 nM. It also gave an IC50 (XIAP-BIR3) of 15.8 to 31.6 nM.
COc1cc(Cl)ccc1Cc1cc2c([nH]c1=O)C(C)(C)CN2C(=O)CN1C[C@@H](C)NC[C@@H]1CN1CCO[C@H](C(=O)NCc2ccc(CNC(=O)[C@@H]3CN(C[C@H]4CN[C@H](C)CN4CC(=O)N4CC(C)(C)c5[nH]c(=O)c(Cc6ccc(Cl)cc6OC)cc54)CCO3)cc2)C1 [Compound 169, (2S,2′S)-N,N′-(1,4-phenylenebis(methylene)) bis(4-(((2R,5R)-1-(2-(6-(4-chloro-2-methoxybenzyl)-3,3-dimethyl-5-oxo-2,3,4,5-tetrahydro-1H-pyrrolo[3,2-b]pyridin-1-yl)-2-oxoethyl)-5-methylpiperazin-2-yl)methyl)morpholine-2-carboxamide)] was tested, and the EC50 [1] was 12.6 to 63.1 nM, the IC50 (cIAP1-BIR3) was 7.94 to 15.8 nM and the IC50 (cIAP2-BIR3) was 1.38 to 7.94 nM. The IC50 (XIAP-BIR3) was 31.6 to 501 nM.
With C[C@@H]1CN(CC(=O)N2CC(C)(C)c3[nH]c(=O)c(Cc4ccc(F)cc4)cc32)[C@@H](CN2CCO[C@H](COc3ccc(C(C)(C)c4cccc(C(C)(C)c5ccc(OC[C@@H]6CN(C[C@H]7CN[C@H](C)CN7CC(=O)N7CC(C)(C)c8[nH]c(=O)c(Cc9ccc(F)cc9)cc87)CCO6)cc5)c4)cc3)C2)CN1 (stereo in doubt) [Example 61, 1,1′-(2,2′-((3R,3′R,6R,6′R)-(((2S,2'S)-((((1,3-phenylenebis(propane-2,2-diyl))bis(4,1-phenylene))bis(oxy))bis(methylene))bis(morpholine-2,4-diyl))bis(methylene))bis(3-methylpiperazine-6,1-diyl))bis(acetyl))bis(6-(4-fluorobenzyl)-3,3-dimethyl-1,2,3,4-tetrahydro-5H-pyrrolo[3,2-b]pyridin-5-one)] the EC50 [1] was 12.6 to 63.1 nM, the IC50 (cIAP1-BIR3) was 31.6 to 501 nM and the IC50 (cIAP2-BIR3) was 31.6 to 501 nM. The IC50 (XIAP-BIR3) was 31.6 to 501 nM.
